52 compounds from PubChem BioAssay AID488870 (Broad Institute, 2010) can be followed below.

The source made the active and inactive calls.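 The calls were made as follows: active = a drop in nitrite signal whose fitted half-maximal concentration is at most ten times the top tested dose; inconclusive = flat fit with 30 to 70% inhibition, or poor curve fit; inactive = the rest.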

A short description of this assay: suppression of NO production in INS-1E cells – cell-based, Griess absorbance, dry powder, set 3, dose response (AID 488870). The following applies: INS-1E cytokine-induced nitrite, Griess absorbance, 48 h; at 19.5 µM (top of the series).
`C[C@@H]1CN([C@@H](C)CO)C(=O)c2cccc(NC(=O)Nc3cccc4ccccc34)c2O[C@H]1CN(C)S(=O)(=O)c1ccccc1`: the activity change, negative = inhibition was -19.1% (inactive).

Turning to `C[C@H]1CN([C@@H](C)CO)C(=O)c2cccc(NC(=O)NC3CCCCC3)c2O[C@@H]1CN(C)S(C)(=O)=O`, the activity change, negative = inhibition was 3.92% (inactive).

For the compound `C[C@@H]1CN([C@H](C)CO)C(=O)c2cccc(NC(=O)Nc3ccc(F)cc3)c2O[C@H]1CN(C)S(=O)(=O)c1ccc(Cl)cc1`, the activity change, negative = inhibition was -5.33% (inactive).

For `C[C@@H]1CN([C@@H](C)CO)C(=O)c2cccc(NC(=O)Nc3ccccc3)c2O[C@H]1CN(C)S(=O)(=O)c1ccc(F)cc1`, the activity change, negative = inhibition is -6.44% (inactive).

For the compound `COc1ccc(S(=O)(=O)N(C)C[C@@H]2Oc3c(NC(=O)Nc4cccc5ccccc45)cccc3C(=O)N(C(C)C)C[C@H]2C)cc1`, the activity change, negative = inhibition was -11.1% (inactive).

Regarding `C[C@@H]1CN([C@@H](C)CO)C(=O)c2cccc(NC(=O)Nc3ccc(F)cc3)c2O[C@H]1CN(C)S(=O)(=O)c1ccc(Cl)cc1`, the activity change, negative = inhibition was -9.62% (inactive).

As to `C[C@@H]1CN([C@@H](C)CO)C(=O)c2cccc(NC(=O)Nc3cccc4ccccc34)c2O[C@H]1CN(C)S(C)(=O)=O`, the activity change, negative = inhibition is 9.52% (inactive).

`Cc1ccc(S(=O)(=O)N(C)C[C@@H]2Oc3c(NC(=O)Nc4ccc(F)cc4)cccc3C(=O)N([C@@H](C)CO)C[C@H]2C)cc1`: the activity change, negative = inhibition is -6.25% (inactive).

For `Cc1ccc(S(=O)(=O)N(C)C[C@@H]2Oc3c(NC(=O)Nc4ccccc4)cccc3C(=O)N([C@@H](C)CO)C[C@H]2C)cc1`, the activity change, negative = inhibition was -10.1% (inactive).

For `C[C@@H]1CN([C@@H](C)CO)C(=O)c2cccc(NC(=O)Nc3ccc(F)cc3)c2O[C@H]1CN(C)S(=O)(=O)c1ccc(F)cc1`, the activity change, negative = inhibition was -6.48% (inactive).

Consider `COc1ccc(S(=O)(=O)N(C)C[C@@H]2Oc3c(NC(=O)Nc4ccccc4)cccc3C(=O)N([C@@H](C)CO)C[C@H]2C)cc1`, for which the activity change, negative = inhibition was -7.93% (inactive).

Take `C[C@@H]1CN([C@@H](C)CO)C(=O)c2cccc(NC(=O)Nc3cccc4ccccc34)c2O[C@H]1CN(C)S(=O)(=O)c1ccc(Cl)cc1`: the activity change, negative = inhibition was -22.9% (inactive).

Consider `COc1ccc(S(=O)(=O)N(C)C[C@@H]2Oc3c(NS(=O)(=O)c4ccccc4)cccc3C(=O)N([C@@H](C)CO)C[C@H]2C)cc1`, for which the activity change, negative = inhibition was 2.87% (inactive).

For `COc1ccc(S(=O)(=O)N(C)C[C@@H]2Oc3c(NC(=O)Nc4ccc(C(F)(F)F)cc4)cccc3C(=O)N([C@@H](C)CO)C[C@H]2C)cc1`, the activity change, negative = inhibition was -18.3% (inactive).

As to `COc1ccc(S(=O)(=O)N(C)C[C@@H]2Oc3c(NC(=O)c4ccc(-c5nccs5)cc4)cccc3C(=O)N([C@@H](C)CO)C[C@H]2C)cc1`, the activity change, negative = inhibition was -2.29% (inactive).

For the compound `COc1ccc(S(=O)(=O)N(C)C[C@@H]2Oc3c(NC(=O)c4cc(C)nn4C)cccc3C(=O)N([C@@H](C)CO)C[C@H]2C)cc1`, the activity change, negative = inhibition was -2.17% (inactive).

Consider `COc1ccc(S(=O)(=O)N(C)C[C@@H]2Oc3c(NS(C)(=O)=O)cccc3C(=O)N([C@@H](C)CO)C[C@H]2C)cc1`, for which the activity change, negative = inhibition is -4.1% (inactive).

Turning to `COc1ccc(S(=O)(=O)N(C)C[C@@H]2Oc3c(cccc3N(C)C)C(=O)N([C@@H](C)CO)C[C@H]2C)cc1`, the activity change, negative = inhibition is 4.92% (inactive).

`COc1ccc(S(=O)(=O)N(C)C[C@@H]2Oc3c(NC(=O)C4CCOCC4)cccc3C(=O)N([C@@H](C)CO)C[C@H]2C)cc1`: the activity change, negative = inhibition was 5.9% (inactive).

With `COc1ccc(S(=O)(=O)N(C)C[C@@H]2Oc3c(NC(=O)Nc4cccc5ccccc45)cccc3C(=O)N([C@@H](C)CO)C[C@@H]2C)cc1`, the activity change, negative = inhibition was -1.85% (inactive).

As for `Cc1ccc(S(=O)(=O)N(C)C[C@@H]2Oc3c(NC(=O)Nc4cccc5ccccc45)cccc3C(=O)N([C@H](C)CO)C[C@H]2C)cc1`, the activity change, negative = inhibition was -10.1% (inactive).

In the case of `COc1ccc(S(=O)(=O)N(C)C[C@@H]2Oc3c(NC(=O)c4cnccn4)cccc3C(=O)N([C@@H](C)CO)C[C@H]2C)cc1`, the activity change, negative = inhibition is -9.05% (inactive).

`COc1ccc(S(=O)(=O)N(C)C[C@@H]2Oc3c(NC(=O)c4ccncc4)cccc3C(=O)N([C@@H](C)CO)C[C@H]2C)cc1`: the activity change, negative = inhibition was -12.3% (inactive).

On to `C[C@@H]1CN([C@@H](C)CO)C(=O)c2cccc(NC(=O)Nc3cccc4ccccc34)c2O[C@H]1CN(C)S(=O)(=O)c1cn(C)cn1`, for which the activity change, negative = inhibition was -10.7% (inactive).

Turning to `COc1ccc(S(=O)(=O)N(C)C[C@H]2Oc3c(NC(=O)Nc4cccc5ccccc45)cccc3C(=O)N([C@H](C)CO)C[C@H]2C)cc1`, the activity change, negative = inhibition is -1.83% (inactive).

In the case of `COc1ccc(S(=O)(=O)N(C)C[C@@H]2Oc3c(NC(=O)Nc4c(C)noc4C)cccc3C(=O)N([C@@H](C)CO)C[C@H]2C)cc1`, the activity change, negative = inhibition is -4.75% (inactive).

`COc1ccc(S(=O)(=O)N(C)C[C@@H]2Oc3c(NS(=O)(=O)c4ccc(Cl)cc4)cccc3C(=O)N([C@@H](C)CO)C[C@H]2C)cc1`: the activity change, negative = inhibition was -7.18% (inactive).

For `CNC[C@@H]1Oc2c(NC(=O)Nc3cccc4ccccc34)cccc2C(=O)N([C@@H](C)CO)C[C@H]1C`, the activity change, negative = inhibition is 3.1% (inactive).

With `COc1ccc(S(=O)(=O)N(C)C[C@@H]2Oc3ccc(NC(=O)Nc4cccc5ccccc45)cc3C(=O)N([C@@H](C)CO)C[C@H]2C)cc1`, the activity change, negative = inhibition was -15.4% (inactive).

On to `C[C@@H]1CN([C@H](C)CO)C(=O)c2cccc(NC(=O)Nc3ccccc3)c2O[C@H]1CN(C)S(=O)(=O)c1ccc(Cl)cc1`, for which the activity change, negative = inhibition was 4.79% (inactive).

Take `COc1ccc(S(=O)(=O)N(C)C[C@@H]2Oc3c(NC(=O)Nc4ccc(F)cc4)cccc3C(=O)N([C@H](C)CO)C[C@H]2C)cc1`: the activity change, negative = inhibition was 20.3% (inactive).

On to `COc1ccc(S(=O)(=O)Nc2cccc3c2O[C@@H](CN(C)S(=O)(=O)c2ccc(OC)cc2)[C@H](C)CN([C@@H](C)CO)C3=O)cc1`, for which the activity change, negative = inhibition is -10.4% (inactive).

For the compound `COc1ccc(S(=O)(=O)N(C)C[C@@H]2Oc3c(NC(=O)Nc4ccc(F)cc4)cccc3C(=O)N([C@@H](C)CO)C[C@H]2C)cc1`, the activity change, negative = inhibition is -7.65% (inactive).

In the case of `C[C@@H]1CN([C@@H](C)CO)C(=O)c2cccc(NC(=O)Nc3cccc4ccccc34)c2O[C@H]1CN(C)C(=O)Nc1ccccc1`, the activity change, negative = inhibition is -16.1% (inactive).

Take `Cc1ccc(S(=O)(=O)N(C)C[C@@H]2Oc3c(NC(=O)Nc4ccccc4)cccc3C(=O)N([C@H](C)CO)C[C@H]2C)cc1`: the activity change, negative = inhibition is 11.6% (inactive).

Turning to `COc1ccc(S(=O)(=O)N(C)C[C@@H]2Oc3c(NC(=O)C4CCCCC4)cccc3C(=O)N([C@@H](C)CO)C[C@H]2C)cc1`, the activity change, negative = inhibition was -0.334% (inactive).

On to `COc1ccc(S(=O)(=O)N(C)C[C@@H]2Oc3c(NC(=O)Nc4cccc5ccccc45)cccc3C(=O)N([C@H](C)CO)C[C@@H]2C)cc1`, for which the activity change, negative = inhibition is 3.88% (inactive).

Consider `COc1ccc(S(=O)(=O)N(C)C[C@@H]2Oc3c(NC(=O)Nc4ccc5c(c4)OCO5)cccc3C(=O)N([C@@H](C)CO)C[C@H]2C)cc1`, for which the activity change, negative = inhibition is -8.76% (inactive).

Consider `C[C@@H]1CN([C@@H](C)CO)C(=O)c2cccc(NC(=O)Nc3ccccc3)c2O[C@H]1CN(C)S(=O)(=O)c1ccc(Cl)cc1`, for which the activity change, negative = inhibition is -8% (inactive).

For `COc1ccc(S(=O)(=O)N(C)C[C@@H]2Oc3c(NS(=O)(=O)c4ccc(F)cc4)cccc3C(=O)N([C@@H](C)CO)C[C@H]2C)cc1`, the activity change, negative = inhibition is 9.8% (inactive).

Turning to `COc1ccc(S(=O)(=O)N(C)C[C@@H]2Oc3c(NC(=O)Nc4cccc5ccccc45)cccc3C(=O)N([C@@H](C)CO)C[C@H]2C)cc1OC`, the activity change, negative = inhibition was -18.5% (inactive).

Turning to `COc1ccc(S(=O)(=O)N(C)C[C@@H]2Oc3c(NS(=O)(=O)c4cn(C)cn4)cccc3C(=O)N([C@@H](C)CO)C[C@H]2C)cc1`, the activity change, negative = inhibition was 4.99% (inactive).

In the case of `C[C@@H]1CN([C@@H](C)CO)C(=O)c2cccc(NS(=O)(=O)c3ccccc3)c2O[C@H]1CN(C)Cc1ccc(C(F)(F)F)cc1`, the activity change, negative = inhibition is -12.5% (inactive).

Take `COc1ccc(S(=O)(=O)N(C)C[C@@H]2Oc3c(NC(=O)NC(C)C)cccc3C(=O)N([C@@H](C)CO)C[C@H]2C)cc1`: the activity change, negative = inhibition was 7.35% (inactive).

In the case of `COc1ccc(S(=O)(=O)N(C)C[C@@H]2Oc3c(NS(=O)(=O)c4ccc(C)cc4)cccc3C(=O)N([C@@H](C)CO)C[C@H]2C)cc1`, the activity change, negative = inhibition was -5.68% (inactive).

As to `COc1ccc(NC(=O)Nc2cccc3c2O[C@@H](CN(C)S(=O)(=O)c2ccc(OC)cc2)[C@H](C)CN([C@@H](C)CO)C3=O)cc1`, the activity change, negative = inhibition was -3.9% (inactive).

As for `C[C@@H]1CN([C@@H](C)CO)C(=O)c2cccc(NC(=O)Nc3cccc4ccccc34)c2O[C@H]1CN(C)C(=O)Nc1ccc(F)cc1`, the activity change, negative = inhibition was -13.6% (inactive).

Regarding `COc1ccc(S(=O)(=O)N(C)C[C@@H]2Oc3c(NC(=O)Nc4ccccc4)cccc3C(=O)N([C@H](C)CO)C[C@H]2C)cc1`, the activity change, negative = inhibition was -11% (inactive).

Take `COc1ccc(S(=O)(=O)N(C)C[C@H]2Oc3c(NC(=O)Nc4cccc5ccccc45)cccc3C(=O)N([C@@H](C)CO)C[C@@H]2C)cc1`: the activity change, negative = inhibition is -9.04% (inactive).

In the case of `COc1ccc(S(=O)(=O)N(C)C[C@@H]2Oc3c(NC(=O)c4cccc5ccccc45)cccc3C(=O)N([C@@H](C)CO)C[C@H]2C)cc1`, the activity change, negative = inhibition is -13.8% (inactive).

Take `Cc1noc(C)c1NC(=O)N(C)C[C@@H]1Oc2c(NC(=O)Nc3cccc4ccccc34)cccc2C(=O)N([C@@H](C)CO)C[C@H]1C`: the activity change, negative = inhibition is -7.11% (inactive).

As to `C[C@@H]1CN([C@@H](C)CO)C(=O)c2cccc(NC(=O)Nc3cccc4ccccc34)c2O[C@H]1CN(C)CC1CC1`, the activity change, negative = inhibition was -0.187% (inactive).
